Publication PMC12520456, “Regulating Enzyme Activity via Microaggregates Mediated by Phase Separation” (Advanced Science, 2025)
Non-standard residues stand in square brackets, D forms with d. Residues, ends and D or L forms follow the SMILES beside them.

Experiments:
[1] = biological target: T1, elastase (Sus scrofa, UniProt P00772); test: Fluorescence anisotropy specificity test; type: binding; conditions: fluorescently labeled DPMD; Figure S3D
T1 construct: purchased Sangon
Experimental: (§1) To validate the design, DPMD was synthesized using solid‐phase synthesis employing HOBt/HBTU and Fmoc chemistry, following a sequence schematic diagram depicted in Figure 1A. Subsequently, a single reverse column purification by High‐performance liquid chromatography (HPLC) yielded DPMD with purity exceeding 95% at a yield surpassing 60% (Figure S1B, Supporting Information). Circular dichroism (CD) spectra were recorded for a 40 µM DPMD sample in an aqueous solution containing 20% TFE at room temperature. The use of 20% TFE was necessary to obtain a clear spectrum, as it enhances peptide solubility and stabilizes secondary structure.^[ [9] ^] […] To further confirm that DPMD's enzymatic targeting is specific and not a broad‐spectrum protein aggregation effect, we tested DPMD against other pancreatic enzymes and abundant plasma proteins. Fluorescently labeled DPMD was mixed with elastase, pancreatic lipase, α‐amylase, carboxypeptidase A, bovine serum albumin (BSA), and IgG, respectively, and fluorescence anisotropy was measured to detect binding. […] For example, anisotropy values for DPMD + elastase (or lipase, amylase, etc.) remained near the baseline (DPMD‐alone) level, whereas DPMD + trypsin produced a pronounced anisotropy elevation (reflecting peptide‐enzyme complex formation and microaggregate assembly).
(§2) Figure S3. […]
(§3) (D-H) The fluorescent anisotropy
(§4) evaluation of binding affinity between DPMD peptide with elastase (D), lipase (E), amylase(F), carboxypeptidase
(§5) (G), albumin (H) and immunoglobulins (I). […]

[2] = system: carboxypeptidase A; test: Fluorescence anisotropy specificity test; type: binding; conditions: fluorescently labeled DPMD; Figure S3G
Experimental: as §1, §2, §3, §4, §5

[3] = biological target: T2, bovine serum albumin (BSA) (Bos taurus, UniProt P02769); test: Fluorescence anisotropy specificity test; type: binding; conditions: fluorescently labeled DPMD; Figure S3H
T2 construct: purchased Psaitong Biotechnology
Experimental: as §1, §2, §3, §4, §5

[4] = system: α-amylase; test: Fluorescence anisotropy specificity test; type: binding; conditions: fluorescently labeled DPMD; Figure S3F
Experimental: as §1, §2, §3, §4, §5

[5] = biological target: T3, pancreatic lipase (Sus scrofa, UniProt P00591); test: Fluorescence anisotropy specificity test; type: binding; conditions: fluorescently labeled DPMD; Figure S3E
T3 construct: purchased Macklin
T3 sequence (P00591 1-450): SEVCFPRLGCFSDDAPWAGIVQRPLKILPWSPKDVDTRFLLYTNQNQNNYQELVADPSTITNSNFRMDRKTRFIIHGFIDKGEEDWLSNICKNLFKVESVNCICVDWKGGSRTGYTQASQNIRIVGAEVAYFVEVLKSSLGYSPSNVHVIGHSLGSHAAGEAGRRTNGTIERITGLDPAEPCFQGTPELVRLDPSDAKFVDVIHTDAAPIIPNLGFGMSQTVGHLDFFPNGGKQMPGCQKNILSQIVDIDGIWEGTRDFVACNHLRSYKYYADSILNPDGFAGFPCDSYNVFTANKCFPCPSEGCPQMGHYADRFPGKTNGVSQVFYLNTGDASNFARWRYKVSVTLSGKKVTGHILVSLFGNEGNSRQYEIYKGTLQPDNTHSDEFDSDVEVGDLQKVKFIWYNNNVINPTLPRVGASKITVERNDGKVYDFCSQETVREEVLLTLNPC
Experimental: as §1, §2, §3, §4, §5

[6] = system: IgG; test: Fluorescence anisotropy specificity test; type: binding; conditions: fluorescently labeled DPMD; Figure S3I
Experimental: as §1, §2, §3, §4, §5

[7] = Turbidity and CLSM phase separation of DPMD with trypsin/chymotrypsin; type: physicochemical
Text: Next, these intriguing microaggregates were further investigated using fluorescence recovery after photobleaching (FRAP) experiments. […] To directly visualize the liquid–solid phase separation process, we performed time‐lapse confocal microscopy on mixtures of DPMD and trypsin/chymotrypsin. Initially, numerous small, spherical DPMD‐rich microdroplets appeared upon enzyme addition and gradually grew into larger droplets within minutes (Figure S5A, Supporting Information). […] We next examined whether the enzyme–peptide aggregates remain stable under varying physiological conditions, such as changes in pH and enzyme concentration.
Figure S5. (A) The CLSM images of DPMD with enzyme and DPMD without enzyme under different time. (B) Turbidity measurements result illustrating the phase separation of DPMD -treated trypsin and chymotrypsin at different concentrations or pH shifts . % represents the mass fraction of the DPMD/trypsin/chymotrypsin . (C) The CLSM images of DPMD with enzyme, DPMD without enzyme and DPMD with enzyme and aprotinin. (D&E) The CLSM images of DPMD with enzyme and DPMD without enzyme under different pH (D) or enzyme concentrations […]
(1 picture or pasted object on this page, not shown here)
0.22μm filter to remove residue. The calcium content of the supernatant was measured using the Calcium ion detection kit (Beyotime) according to the recommended method. […]
Peptide and enzyme solutions were prepared at varying concentrations and mixed at a 1:1 volume ratio. Solution turbidity was quantitatively assessed by monitoring absorbance at 405 nm using a BioTek spectrophotometer. For fluorescence-based characterization, peptides were labeled with FITC while enzymes were labeled with Cy5. […] For fluorescence recovery after photobleaching (FRAP) analysis, enzyme-aggregated patches were selectively bleached at 60% laser power using 488/640 nm lasers for 10 s, followed by time-lapse imaging at 1-min intervals. […] Fluorescence intensity in the photobleached region was measured using ImageJ software , with values normalized to pre-bleach baselines. […]

T2 sequence (P02769 25-607): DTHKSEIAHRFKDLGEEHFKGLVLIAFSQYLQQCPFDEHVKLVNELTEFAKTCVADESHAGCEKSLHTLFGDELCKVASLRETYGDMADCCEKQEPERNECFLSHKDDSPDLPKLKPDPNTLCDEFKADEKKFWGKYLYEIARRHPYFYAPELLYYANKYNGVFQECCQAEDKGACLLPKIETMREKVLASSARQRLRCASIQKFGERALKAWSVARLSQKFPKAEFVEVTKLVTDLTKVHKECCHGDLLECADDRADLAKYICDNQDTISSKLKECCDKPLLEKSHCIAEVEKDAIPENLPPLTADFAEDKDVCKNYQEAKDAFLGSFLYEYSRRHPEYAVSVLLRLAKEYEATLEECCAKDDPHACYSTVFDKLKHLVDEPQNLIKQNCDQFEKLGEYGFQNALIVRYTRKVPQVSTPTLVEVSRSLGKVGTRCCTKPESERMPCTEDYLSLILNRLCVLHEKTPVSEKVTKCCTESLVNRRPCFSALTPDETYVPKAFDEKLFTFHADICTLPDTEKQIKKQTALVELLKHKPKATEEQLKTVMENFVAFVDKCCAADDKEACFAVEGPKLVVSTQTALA
T1 sequence (P00772 27-266): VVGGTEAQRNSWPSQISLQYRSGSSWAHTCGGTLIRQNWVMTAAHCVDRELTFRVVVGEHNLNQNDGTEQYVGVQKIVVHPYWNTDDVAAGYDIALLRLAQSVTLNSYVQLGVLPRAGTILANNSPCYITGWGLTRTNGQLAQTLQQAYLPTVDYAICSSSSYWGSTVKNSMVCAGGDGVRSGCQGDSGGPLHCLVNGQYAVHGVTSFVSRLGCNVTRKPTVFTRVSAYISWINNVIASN

With `CC[C@@H](C)[C@@H](NC(=O)[C@@H](CCC(N)=O)NC(=O)[C@H](NC(=O)[C@@H](Cc1ccc(O)cc1)NC(=O)CNC(=O)[C@@H](CC(C)C)NC(=O)[C@H](NC(=O)[C@@H](CO)NC(=O)CNC(=O)[C@@H](C)NC(=O)[C@@H](CC(=O)O)NC(=O)[C@@H](C)NC(=O)[C@@H](CCCNC(=N)N)NC(=O)[C@@H](C)NC(=O)[C@@H](CC(=O)O)NC(=O)[C@@H](C)NC(=O)[C@@H](CCCNC(=N)N)NC(=O)[C@@H](C)NC(=O)[C@@H](CC(=O)O)NC(=O)[C@@H](C)NC(=O)[C@@H](CCCNC(=N)N)NC(=O)[C@@H](C)NC(=O)[C@@H](CC(=O)O)NC(=O)[C@@H](C)NC(=O)[C@H](N)CCCNC(=N)N)C(C)C)[C@H](C)CC)C(=O)N[C@H](CCCNC(=N)N)C(=O)O` [DPMD, Ac‐(D‐RADA)4‐CONH2] (H-[dR][dA][dD][dA][dR][dA][dD][dA][dR][dA][dD][dA][dR][dA][dD][dA]G[dS][dV][dL]G[dY][dI][dQ][dI][dR]-OH; N-terminus and C-terminus assumed) the “anisotropy increase with elastase” value [1] was “no significant anisotropy increase”, the “anisotropy increase with carboxypeptidase A” value [2] was “no significant anisotropy increase” and the “anisotropy increase with BSA” value [3] was “no significant anisotropy increase”. For the same compound, the “anisotropy increase with α-amylase” value [4] was “no significant anisotropy increase”, the “anisotropy increase with pancreatic lipase” value [5] was “no significant anisotropy increase” and the “anisotropy increase with IgG” value [6] was “no significant anisotropy increase”. The “phase separation by turbidity” value ([7]; absorbance at 405 nm, DPMD and trypsin/chymotrypsin mixtures 1:1 volume, across a range of pH levels and enzyme concentrations, Figure S5B) was “robust phase separation”, the “phase separation with aprotinin-neutralized protease” value ([7]; enzyme pre-incubated with aprotinin, CLSM, Figure S5C) was “no significant phase separation occurred” and the “aggregate formation at shifted pH” value ([7]; pH 5.6 and pH 8.4, mixtures with trypsin/chymotrypsin, Figure S5D) was “still became cloudy and formed microscopically visible droplets/aggregates”.
